The text below walks through data of patent US6166036A, “Lp(a)-lowering agent and apolipoprotein (a) formation suppressing agent” (Taiho Pharmaceutical Co., Ltd., priority 1998, dated 2000).

For one series, the system named is apo(a) gene. As to the kind of experiment: Test on suppression of apo(a) gene expression (luciferase assay in HepG2 cells). The class given is cell-based, human. The note with it: final concentration of 2 μM, 48 hours; for inhibition at 2 µM: Homo sapiens, relative to DMSO control group, read-out: Expression ratio (%) of apo(a) gene; for effect on expression of apo(a) gene (in words): conclusion from Table 5. As to the method: This test was carried out in accordance with the method described in "BIOCHEMICAL AND BIOPHYSICAL RESEARCH COMMUNICATIONS 227, 570-575[…] ARTICLE No. 1547". Described specifically, 2 μg/mL of an apo(a) gene (1441 base pairs) separated from the blood of normal volunteers was introduced into HepG2 cells (2×10^5 cells/mL), followed by culturing for 16 hours. Compound 4 was dissolved in DMSO (dimethylsulfoxide) to give a final concentration of 2 μM, to which the cultured cells were added. After culturing for further 48 hours, the expression of an apo(a) gene was measured regarding it as luciferases reaction and therefore, using luciferases assay system (Picagene) of Toyo Ink Mfg. Co., Ltd. for the analysis of gene expression. Namely, the cultured HepG2 cells were dissolved in a liquid to dissolve them therein. The resulting solution was centrifuged to obtain a supernatant. To 200 μl of the resulting supernatant was added 100 μl of a […] substrate, followed by mixing for 15 seconds. The luminescence was measured by a chemo-bioluminescence measuring device (Luminoscan RS) of Dainippon Pharmaceutical Co., Ltd. and expression ratio of an apo(a) gene was determined. The expression ratio of an apo(a) gene was calculated from the ratio to the luminescence of a group (control group) to which the same amount of DMSO had been added. As comparative compounds, pravastatin (HMG-COA reductase inhibitor, sterol synthesis inhibitor) and bezafibrate (fibrate series medicament, antihyperlipoproteinemic) were treated in a similar manner and provided for the test.

A further series relates to Lp(a). Description: A test on lowering of the Lp(a) level in crab-eating monkeys. Type of series: in vivo, crab-eating monkey. The note with it: oral 30 mg/kg, three weeks; for Changing ratio (%) of Lp(a): male, 5 per group, Lp(a) level in blood, average value; for effect on Lp(a) level (in words): conclusion from Table 6. On the procedure: Crab-eating monkeys (male, 2.4 to 3.9 kg in weight) were reared in groups, each group consisting of 5 monkeys. Compound 4 was suspended in a 0.5%, HPMC (hydroxypropylmethyl cellulose) solution in an amount of 30 mg/5 mL, whereby the test compound was prepared. To the specimen-administered group, the test compound was orally administered at a dose of 30 mg/kg. At the starting time of administration and three weeks after administration, the Lp(a) level in the blood of the tested animals was measured. For the measurement, a kit ("Immunosearch Lp(a) TIA") commercially available from Cosmo Bio Co., Ltd. was employed. Namely, according to the procedure as indicated in the kit, the measurement was carried out by adding 256 μl of a phosphate buffer to 7 μl of the serum and then adding the goat anti-human Lp(a) serum to the resulting mixture. For the measurement, a biochemical automatic analyzer ("Hitachi 7170"; product of Hitachi Ltd.) was employed. As a comparative compound, pravastatin and bezafibrate were treated similarly and provided for the test. From the measuring results, a changing ratio (%) of the Lp(a) level at the starting time of administration relative to that three weeks after the administration was determined with regards to each of the monkeys and the average value was expressed as an Lp(a) lowering ratio.

The test system of the next series is beagles. Description: Acute toxicity test in beagles. The note with it: 7-month old male beagles, 2 per group, fasted 16 hours; oral 2000 mg/kg in 0.5% HPMC. Type of series: in vivo, beagle dog. On the procedure: After 7-month old beagles (male, each group consisting of 2 beagles) were fasted for 16 hours, Compound 4 suspended in a 0.5%, HPMC solution was orally administered at a dose of 2000 mg/kg.

`CC[C@H](C)C(=O)O[C@H]1C[C@H](O)C=C2C=C[C@H](C)[C@H](CC[C@@H](O)C[C@@H](O)CC(=O)O)[C@H]21` [Pravastatin, pravastatin]: in the series with apo(a) gene, the inhibition at 2 µM is -27% and the “effect on expression of apo(a) gene (in words)” value (“effect on expression” for short) is “reinforced the expression of the apo(a) gene”. For the same compound, in the series with Lp(a), the “Changing ratio (%) of Lp(a)” value is “+35%” and the “effect on Lp(a) level (in words)” value is reported as “increased the Lp(a) level”.

For the compound `CC(C)(Oc1ccc(CCNC(=O)c2ccc(Cl)cc2)cc1)C(=O)O` [Bezafibrate, bezafibrate], in the series on apo(a) gene, the inhibition at 2 µM was -3% and the “effect on expression” value is “reinforced the expression of the apo(a) gene”. In addition, in the series on Lp(a), the “Changing ratio (%) of Lp(a)” value is reported as “+8%” and the “effect on Lp(a) level (in words)” value is listed as “increased the Lp(a) level”.

For the compound `CC(C)(C)c1ccc(N2C[C@@H](COc3ccc(C(=O)O)cc3)CC2=O)cc1` [Compound 4, (S)-(+)-4-[1-(4-tert-butylphenyl)-2-pyrrolidon-4-yl]methoxybenzoic acid], in the series on apo(a) gene, the inhibition at 2 µM was found to be 24% and the “effect on expression” value was “exhibited excellent effects for suppressing the expression of an apo(a) gene”. In the series on Lp(a), the “Changing ratio (%) of Lp(a)” value is recorded as -33% and the “effect on Lp(a) level (in words)” value is listed as “exhibited excellent Lp(a) lowering effects”. Moreover, in the series with beagles, the death cases result was “neither death case” and the serious side effects entry is given as “nor serious side effects were recognized”.
